In publication PMC3330111, “Computational Design of a PDZ Domain Peptide Inhibitor that Rescues CFTR Activity” (PLoS Computational Biology, 2012):
“Also recorded” adds a separate entry of the source. Ends that are not written are not given here.

Assays:
ΔF508-CFTR chloride flux [1] = settings: CFBE-ΔF cells, identical experimental conditions; ref [1]; cited from earlier work
From the text: While this effect is clearly statistically significant ( ), we also wished to assess its magnitude relative to the effect of known rescue compounds. The performance of kCAL01 was benchmarked using polarized human airway epithelial cells derived from a CF patient (stably expressing ΔF508-CFTR; CFBE- F cells). In these cells, CFTR rescue is more challenging than in heterologous cells, but the levels of rescue observed are more likely to reflect the physiological situation. Since CFTR modulation is extremely sensitive to experimental con ...

ΔF508-CFTR chloride flux [2] = experiment: Ussing chamber chloride flux in CFBE-ΔF cells; format: cell-based, human; settings: polarized CFBE-ΔF monolayers, 3.5 hour incubation; for improvement in chloride secretion with respect to control peptide kCAL31: peptide delivered with BioPORTER, change in short circuit current on CFTR-specific inhibitor after amiloride, forskolin, genistein
Protocol: Ussing chamber experiments were performed as described previously. Polarized monolayers of patient-derived bronchial epithelial cells, CFBE- [drawing 180] F cells (a generous gift of Dr. J.P. Clancy, [63]), were maintained in MEM with 2 mM l-glutamine, 10% fetal bovine serum, 50 units/mL penicillin, [drawing 181] streptomycin, [drawing 182] puromycin, [drawing 183] plasmocin, and [drawing 184] amphotericin B. Cells were grown at [drawing 185] in 5% [drawing 186] . Twenty four hours before treatment the cells were moved to MEM with only penicillin and streptomycin. Peptides were dissolved in DMSO and diluted to [drawing 187] in PBS. Peptide solutions were applied to cells following incubation with BioPORTER delivery reagent (Sigma). […] Following a 3.5 hour incubation with peptide, short circuit currents ( [drawing 188] ) were monitored in Ussing chambers. Following treatment with amiloride, forskolin, and genistein, ΔF508-CFTR chloride flux was measured as the change in [drawing 189] when the CFTR-specific inhibitor, [drawing 190] [64], [65], was applied to the cell monolayer. All measurements were performed at [drawing 191] .

CAL PDZ domain [3] = biological target: T1, CAL PDZ domain (Homo sapiens, UniProt Q9HD26); experiment: fluorescence polarization (FP) competition binding; settings: for Ki: FP competition, compared with best previously known hexamer (iCAL35), read-out: Experimental Ki, mark †
From the text: The inhibitor dissociation constants of top- and poorly-ranked peptide sequences from the [drawing 176] CAL-CFTR design were experimentally determined. As a control, the best known peptide hexamer was also retested. The corresponding N-terminally acetylated peptides were purchased from NEO BioScience (Cambridge, MA) and the [drawing 177] values for the peptides were detected using fluorescence polarization (FP), using the method previously described in [59]. […] Each peptide inhibitor was serially diluted and the protein-peptide mixture was added to each dilution. Finally, the amount of competitive inhibition was tracked using residual fluorescence polarization at temperatures between [drawing 178] . Each [drawing 179] value is reported as an average of three FP experiments conducted on separate days along with the corresponding standard deviation.

CAL PDZ domain [4] = biological target: T1, CAL PDZ domain; experiment: ProLib profile library SPOT array; format: binding; settings: 10 µg/ml His-tagged CAL PDZ domain, anti-His/anti-mouse-HRP detection
Protocol: After the [drawing 124] predictions were calculated, the binding of C-termini peptides to CAL was also experimentally assessed using an additional SPOT array. The profile library array (ProLib; Fig. S3 in Text S1) was designed based on the following motif: bbbb [drawing 125] (B = permutation of a defined set of amino acids, b = mixture of 17 amino acids, without C, M and W). The defined set of amino acids were selected based on the HumLib results combined with substitutional analyses with [drawing 126] = A/C/D/E/F/I/K/L/M/N/Q/R/S/T/V/W/Y, [drawing 127] = S/T, [drawing 128] = A/C/D/E/F/I/K/L/M/N/Q/R/S/T/V/W/Y, [drawing 129] = I/L/V (Total number of peptides = 1734+22 internal control sequences). Incubation condition: [drawing 130] His-tagged CAL PDZ domain detected by anti-His (Sigma; 1∶2600)/anti-mouse-HRP (Calbiochem; 1∶2000) antibody sandwich.
Fig. S3. CAL binding data for ProLib spot array. We selected the amino acid prefer-ences of the last 4 C-terminal ligand residues based on their frequency deduced from the 6223-Humlib and the substitutional analysis. […] Incubation condition: 10 µg/ml His-tagged CAL PDZ domain detected by anti-His (Sigma; 1:2600)/anti-mouse-HRP (Calbiochem; 1:2000) antibody sand- […]

## COc1ccc(Cl)cc1Nc1nc(-c2sc(NC(=O)c3ccccc3)nc2C)cs1 [corr-4a]
ΔF508-CFTR chloride flux [1]
  increase in ΔF508-CFTR levels: 15%

## WQTSII [iCAL35, reference compound]
ΔF508-CFTR chloride flux [2]
  improvement in chloride secretion with respect to control peptide kCAL31: 4%

## Ac-WQKTRL [kCAL03, Ac-WQKTRL]
CAL PDZ domain [3]
  Ki: < 14 µM

## Ac-WQVTRV [kCAL01, Ac-WQVTRV]
CAL PDZ domain [3]
  binding efficiency (ratio of inhibitor potency, ΔG, to molecular mass) relative to F*-iCAL36: approximately twice
  Ki: < 14 µM
CAL PDZ domain [3]; FP
  improvement in CAL binding affinity compared to iCAL35: six-fold
  improvement in CAL binding affinity over HumLib01: six-fold
CAL PDZ domain [3]; versus best known natural ligand ANGLMQTSKL
  fold higher affinity than any comparable natural ligand: 9 fold
CAL PDZ domain [3]; versus wild-type CFTR sequence TEEEVQDTRL
  fold tighter binding to CAL than the CFTR C-terminus: 170 fold
ΔF508-CFTR chloride flux [2]; BioPORTER delivery
  improvement in chloride secretion with respect to reference peptide iCAL35: 8%
ΔF508-CFTR chloride flux [2]
  improvement in chloride secretion with respect to control peptide kCAL31: 12%

## Ac-WQRTRL [kCAL04, Ac-WQRTRL]
CAL PDZ domain [3]
  Ki: < 14 µM

## WQSTRL [HumLib01]
CAL PDZ domain [3]; FP
  improvement in CAL binding affinity compared to iCAL35: only a marginal improvement
CAL PDZ domain [4]
  CAL binding in ProLib array: strongest binder

## Ac-WQFTRL [kCAL02, Ac-WQFTRL]
CAL PDZ domain [3]
  Ki: < 14 µM

## Ac-WQKTRI [kCAL05, Ac-WQKTRI]
CAL PDZ domain [3]
  Ki: < 14 µM

## Ac-WQDSGI [kCAL31]
CAL PDZ domain [3]; FP competition with labeled peptide, 25 mM Tris-HCl pH 8.5, 150 mM NaCl, 0.1 mg/mL bovine IgG, 0.5 mM Thesit, average of three FP experiments on separate days
  Experimental Ki (inhibitor dissociation constant): no binding was detected; also recorded: no CAL binding detected
